“And” between values parts separate entries of the source, which are not always exact repeats. Equal entries are not always repeated.
Biological target: MAPK14 (human) (UniProt Q16539)
Experiment: Inhibition of MAPK14 Kinase Activity
Conditions: THP.1 monocytic

Sequence of MAPK14 (human) (Q16539 whole entry, looked up): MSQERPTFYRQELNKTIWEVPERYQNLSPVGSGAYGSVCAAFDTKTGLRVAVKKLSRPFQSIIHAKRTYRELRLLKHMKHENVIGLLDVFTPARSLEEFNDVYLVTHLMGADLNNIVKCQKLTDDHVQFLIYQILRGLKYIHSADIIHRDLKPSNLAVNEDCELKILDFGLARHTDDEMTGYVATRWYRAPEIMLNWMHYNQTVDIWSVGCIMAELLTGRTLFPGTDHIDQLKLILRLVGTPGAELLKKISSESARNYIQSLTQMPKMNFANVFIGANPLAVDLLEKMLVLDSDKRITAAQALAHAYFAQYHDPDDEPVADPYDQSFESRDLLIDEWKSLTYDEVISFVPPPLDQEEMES

Row | Structure (SMILES) | IC50
1 | Cc1cc(OCc2ccc(F)cc2F)c(Br)c(=O)n1Cc1ccc(CN(CCO)CCO)cc1 | < 1000 nM
2 | O=c1c(Br)c(OCc2ccccc2)ccn1Cc1cccc(F)c1 | < 1000 nM
3 | Cc1cc(OCc2cccc(Cl)c2)cc(=O)n1Cc1ccccc1 | > 100000 nM
4 | N#Cc1ccccc1Cn1ccc(OCc2ccccc2)c(Br)c1=O | 1000 to 25000 nM
5 | O=C(Nc1ccn(Cc2cccc(F)c2)c(=O)c1Br)c1c(F)cccc1F | 1000 to 25000 nM
6 | Cc1c(OCc2ccc(F)cc2)ccn(Cc2cccc(F)c2)c1=O | 1000 to 25000 nM
7 | CNC(=O)c1ccc(C)c(-n2c(C)cc(OCc3ccc(F)cc3CNC(=O)OC)c(Br)c2=O)c1 | < 1000 nM
8 | Cc1cc(OCc2ccc(F)cc2F)c(Cl)c(=O)n1-c1c(F)cc(F)cc1F | < 1000 nM
9 | O=c1c(Br)c(NCc2ccc(F)cc2F)ccn1Cc1cccc(F)c1 | < 1000 nM
10 | CCOC(=O)c1ccc(-n2c(C)cc(OCc3ccc(F)cc3F)c(Br)c2=O)nc1 | 25000 to 100000 nM
11 | CC(=O)NCc1cccc(Cn2c(C)cc(OCc3ccc(F)cc3F)c(Br)c2=O)c1 | < 1000 nM
12 | Cc1cc(OCc2ccc(F)cc2F)c(Cl)c(=O)n1-c1c(F)cccc1F | < 1000 nM
13 | Cc1cc(OCc2ccc(F)cc2F)c(Br)c(=O)n1Cc1cccc(CNC(=O)CO)c1 | < 1000 nM
14 | O=c1cc(OCc2cccc(Cl)c2)ccn1Cc1ccccc1 | 25000 to 100000 nM
15 | C=CCNc1cc(=O)n(-c2c(F)cccc2F)c(C)c1I | 1000 to 25000 nM
16 | Cc1cc(OCc2ccc(F)cc2F)c(Br)c(=O)n1Cc1cnc(CO)cn1 | < 1000 nM
17 | Cc1cc(OCc2ccc(F)cc2F)c(Br)c(=O)n1-c1cccc(CN(C)C)c1 | 1000 to 25000 nM
18 | CC(=O)Nc1ccc(Cn2c(C)cc(OCc3ccc(F)cc3F)c(Br)c2=O)cc1 | < 1000 nM
19 | Cc1cc(OCc2ccc(F)cc2F)c(Br)c(=O)n1Cc1ccc(S(=O)(=O)N(C)C)cc1 | < 1000 nM
20 | COCC(=O)NCc1cccc(-n2c(C)cc(OCc3ccc(F)cc3F)c(Br)c2=O)c1 | 1000 to 25000 nM
21 | O=c1c(Br)c(OCc2ccccc2)ccn1Cc1ccccc1C(F)(F)F | > 100000 nM
22 | O=c1c(Br)c(NCc2ccc(F)cc2C(F)(F)F)ccn1Cc1cccc(F)c1 | > 100000 nM

Row | Structure (SMILES) | IC50
23 | Cc1c(C(O)CO)c(OCc2ccc(F)cc2F)c(Br)c(=O)n1-c1c(F)cccc1F (configuration not stated) | 25000 to 100000 nM
24 | Cc1cc(OCc2ccc(F)cc2F)c(Br)c(=O)n1-c1c(F)c(Br)c(O)c(Br)c1F | 1000 to 25000 nM
25 | Cc1cc(OCc2ccc(F)cc2F)c(Br)c(=O)n1-c1c(F)cc(N(C)CCO)cc1F | < 1000 nM
26 | CCc1c(OCc2ccccc2)ccn(Cc2ccccc2)c1=O | 1000 to 25000 nM
27 | CNC(=O)c1cnc(Cn2c(C)cc(OCc3ccc(F)cc3F)c(Br)c2=O)cn1 | 1000 to 25000 nM
28 | O=c1cc(OCc2ccccc2Cl)ccn1Cc1ccccc1 | 25000 to 100000 nM
29 | Cc1cc(OCc2ccc(F)cc2F)c(Br)c(=O)n1Cc1cccc(CN)c1 | < 1000 nM
30 | Cc1cc(OCc2ccc(F)cc2F)c(Br)c(=O)n1-c1cccc(CNC(=O)N(C)C)c1 | 1000 to 25000 nM
31 | O=c1c(Br)c(OCc2ccc(F)cc2F)cc(CO)n1-c1c(F)cc(F)cc1F | < 1000 nM
32 | Cn1ccc(OCc2ccccc2)c(Br)c1=O | 1000 to 25000 nM
33 | CCn1ccc(OCc2ccccc2)c(Br)c1=O | 1000 to 25000 nM
34 | Cc1cc(OCc2ccc(F)cc2F)c(Br)c(=O)n1-c1cccc(C(=O)NCCN)c1 | < 1000 nM
35 | O=c1c(Br)c(OCc2ccccc2)ccn1Cc1ccccc1F | < 1000 nM
36 | Cc1cccc(C)c1-n1c(C)cc(OCc2c(F)cc(F)cc2F)c(Br)c1=O | < 1000 nM
37 | CN(C(=O)Oc1ccn(Cc2ccccc2)c(=O)c1Br)c1ccccc1 | > 100000 nM
38 | NC(=O)c1cccc(Cn2ccc(OCc3ccccc3)c(Br)c2=O)c1 | 1000 to 25000 nM
39 | Cc1cc(OCc2ccc(F)cc2F)c(Br)c(=O)n1Cc1cccc(C(=O)O)c1 | 1000 to 25000 nM
40 | O=c1c(Br)c(OCc2ccccc2)ccn1Cc1ccc(Cl)cc1 | < 1000 nM
41 | O=c1c(Cl)c(OCc2ccc(F)cc2F)cc(CO)n1-c1c(F)cccc1F | < 1000 nM
42 | Cc1cc(OCc2ccc(F)cc2F)c(Br)c(=O)n1-c1cccc(CNC(N)=O)c1 | 1000 to 25000 nM
43 | O=c1cc(OCc2ccccc2)ccn1Cc1ccc(Br)cc1 | > 100000 nM
44 | CNC(=O)c1ccc(Cn2c(C)cc(OCc3ccc(F)cc3F)c(Br)c2=O)cc1 | < 1000 nM and 1000 to 25000 nM

Row | Structure (SMILES) | IC50
45 | Cc1ccc(CNC(C)C)cc1-n1c(C)cc(OCc2ccc(F)cc2F)c(Br)c1=O | 1000 to 25000 nM
46 | O=c1c(Br)c(NCc2ccccc2)ccn1Cc1cccc(F)c1 | 1000 to 25000 nM
47 | Cc1cc(OCc2ccc(F)cc2F)c(Br)c(=O)n1-c1cc(C(N)=O)ccc1F | < 1000 nM
48 | Cc1cc(OCc2ccc(F)cc2F)c(Br)c(=O)n1-c1cccc(C(=O)NC(C)C)c1 | < 1000 nM
49 | Cc1cc(OCc2ccc(F)cc2F)c(Cl)c(=O)n1-c1c(F)cc(N2CCN(C)CC2)cc1F | < 1000 nM
50 | Cc1cccc(COc2ccn(Cc3cccc(F)c3)c(=O)c2Br)c1 | < 1000 nM
51 | COC(=O)CCn1ccc(OCc2ccccc2)c(Br)c1=O | 1000 to 25000 nM
52 | CC(=O)NCc1cccc(-n2c(C)cc(OCc3ccc(F)cc3F)c(Br)c2=O)c1 | 1000 to 25000 nM
53 | Cc1c(OCc2ccccc2)ccn(Cc2cccc(F)c2)c1=O | 1000 to 25000 nM
54 | O=Cc1cc(OCc2ccc(F)cc2F)c(Br)c(=O)n1-c1c(F)cccc1F | < 1000 nM
55 | Cc1ccc(C(=O)NCCO)cc1-n1c(C)cc(OCc2ccc(F)cc2F)c(Br)c1=O | < 1000 nM
56 | Cc1cc(NCc2ccc(F)cc2F)c(Cl)c(=O)n1-c1c(F)cccc1F | 1000 to 25000 nM
57 | Cc1cc(OCc2ccc(F)cc2F)c(Br)c(=O)n1-c1cccc(C(=O)N(C)C)c1 | < 1000 nM
58 | CC(C)(C)c1ccc(COc2ccn(Cc3cccc(F)c3)c(=O)c2Br)cc1 | > 100000 nM
59 | Cc1ncc(Cn2c(C)cc(OCc3ccc(F)cc3F)c(Cl)c2=O)c(N)n1 | 1000 to 25000 nM
60 | Cc1ccc(C(C)(C)O)cc1-n1c(C)cc(OCc2ccc(F)cc2F)c(Br)c1=O | < 1000 nM
61 | N#Cc1ccc(COc2ccn(Cc3cccc(F)c3)c(=O)c2Br)cc1 | 25000 to 100000 nM
62 | Cc1cc(OCc2ccc(F)cc2F)c(Br)c(=O)n1Cc1cccc(CNC(N)=O)c1 | 1000 to 25000 nM
63 | COCCNC(=O)c1cccc(-n2c(C)cc(OCc3ccc(F)cc3F)c(Br)c2=O)c1 | < 1000 nM
64 | C=CCn1c(C)cc(OCc2ccc(F)cc2F)c(Br)c1=O | < 1000 nM
65 | Cc1c(C=O)c(OCc2ccc(F)cc2F)c(Br)c(=O)n1-c1c(F)cccc1F | 25000 to 100000 nM
66 | Cc1cc(OCc2ccc(F)cc2F)c(Br)c(=O)n1Cc1ccnc(CN)n1 | 1000 to 25000 nM

Row | Structure (SMILES) | IC50
67 | Cc1c(C2CO2)c(OCc2ccc(F)cc2F)c(Br)c(=O)n1-c1c(F)cccc1F (configuration not stated) | 25000 to 100000 nM
68 | COCCN(C)C(=O)c1cccc(-n2c(C)cc(OCc3ccc(F)cc3F)c(Br)c2=O)c1 | 1000 to 25000 nM
69 | O=c1c(Br)c(OCc2ccccc2)c(Br)cn1Cc1ccccc1 | > 100000 nM
70 | Cc1cc(CCc2ccccc2)c(Br)c(=O)n1Cc1cccc(F)c1 | 1000 to 25000 nM
71 | O=c1c(Br)c(OCc2ccc(C(F)(F)F)cc2)ccn1Cc1cccc(F)c1 | 1000 to 25000 nM
72 | Cc1c(C#N)c(OCc2ccc(F)cc2F)c(Br)c(=O)n1-c1c(F)cccc1F | 25000 to 100000 nM
73 | CNC(=O)c1ccc(C)c(-n2c(C)cc(OCc3ccc(F)cc3F)c(Cl)c2=O)c1 | < 1000 nM
74 | Cc1cc(OCc2ccc(F)cc2F)c(Br)c(=O)n1Cc1ccc(C(=O)NC(C)C)cc1 | < 1000 nM
75 | Cc1cc(OCc2ccc(F)cc2F)c(Br)c(=O)n1-c1ccc(C(N)=O)cc1Cl | < 1000 nM
76 | Cc1cccc(C)c1-n1c(C)cc(OCc2ccc(F)cc2F)c(Br)c1=O | < 1000 nM
77 | Cc1cc(OCc2ccc(F)cc2F)c(Br)c(=O)n1-c1c(F)cc(N2CCOCC2)cc1F | < 1000 nM
78 | N#Cc1ccc(Cn2ccc(OCc3ccccc3)c(Br)c2=O)cc1 | < 1000 nM
79 | O=C(O)c1cc(OCc2ccc(F)cc2F)c(Br)c(=O)n1-c1c(F)cccc1F | 1000 to 25000 nM
80 | O=C(O)c1ccc(Cn2ccc(OCc3ccccc3)c(Br)c2=O)cc1 | < 1000 nM
81 | Cc1cc(OCc2ccc(F)cc2F)c(Br)c(=O)n1-c1c(F)cc(N2CCN(C)CC2)cc1F | < 1000 nM
82 | Cc1cc(OCc2cccc(Cl)c2)c(Br)c(=O)n1Cc1ccccc1 | 1000 to 25000 nM
83 | Cc1cc(OCc2ccc(F)cc2F)c(Cl)c(=O)n1Cc1cnc(CO)cn1 | 1000 to 25000 nM
84 | Cc1cc(OCc2ccc(F)cc2F)c(Br)c(=O)n1Cc1ccccc1CN | 1000 to 25000 nM
85 | Cc1cc(OCc2ccc(F)cc2F)c(Br)c(=O)n1Cc1cnc(C(=O)N2CCN(C)CC2)cn1 | < 1000 nM
86 | Cc1ccc(COc2ccn(Cc3ccccc3)c(=O)c2Br)cc1 | 1000 to 25000 nM
87 | O=c1c(I)c(OCc2ccccc2)ccn1Cc1ccccc1 | 1000 to 25000 nM
88 | CC(C)(C)c1ccc(Cn2ccc(OCc3ccc(F)cc3)c(Br)c2=O)cc1 | 1000 to 25000 nM

Row | Structure (SMILES) | IC50
89 | Cc1cc(OCc2ccc(F)cc2F)c(Br)c(=O)n1-c1ccc(C(N)=O)cc1 | 1000 to 25000 nM
90 | CCOC(=O)c1cccc(-n2c(C)cc(OCc3ccc(F)cc3F)c(Br)c2=O)c1 | < 1000 nM
91 | Cc1cc(NCc2ccc(F)cc2)c(Br)c(=O)n1Cc1ccc(F)cc1 | < 1000 nM
92 | Cc1cc(OCc2ccc(F)cc2F)c(Br)c(=O)n1-c1c(F)cc(Br)cc1F | < 1000 nM
93 | Cc1cc(OCc2ccc(F)cc2F)c(Br)c(=O)n1Cc1ccccc1C#N | 1000 to 25000 nM
94 | O=c1c(Br)c(OCc2ccccc2-c2ccccc2)ccn1Cc1cccc(F)c1 | > 100000 nM
95 | O=C(c1ccc(-n2ccc(OCc3ccccc3)c(Br)c2=O)cc1)N1CCOCC1 | 1000 to 25000 nM
96 | O=c1c(Br)c(CCc2ccccc2)ccn1Cc1cccc(F)c1 | 1000 to 25000 nM
97 | Cc1cc(OCc2ccc(F)cc2F)c(Br)c(=O)n1-c1ccc(C(=O)NO)cc1 | > 100000 nM
98 | CNC(=O)c1cccc(-n2c(C)cc(OCc3ccc(F)cc3F)c(Br)c2=O)c1 | < 1000 nM
99 | Cc1cc(OCc2ccc(F)cc2F)c(Br)c(=O)n1-c1c(F)cc(N(C)C)cc1F | < 1000 nM
100 | Cc1cc(OCc2ccc(F)cc2F)c(Cl)c(=O)n1-c1cccc(C(=O)O)c1 | 1000 to 25000 nM
101 | COc1ccc(C(=O)N(C)C)cc1-n1c(C)cc(OCc2ccc(F)cc2F)c(Br)c1=O | < 1000 nM
102 | COC(=O)c1ccc(C)c(-n2c(C)cc(OCc3ccc(F)cc3F)c(Cl)c2=O)c1 | < 1000 nM
103 | COC(=O)c1ccc(-n2c(C)cc(OCc3ccc(F)cc3F)c(Br)c2=O)c(Cl)c1 | < 1000 nM
104 | Cc1cc(OCc2ccc(F)cc2F)c(Br)c(=O)n1Cc1ccc(C(=O)NCCN)cc1 | < 1000 nM
105 | Cc1cc(OCc2ccc(F)cc2F)c(Br)c(=O)n1Cc1cccc(CNS(C)(=O)=O)c1 | < 1000 nM
106 | C=Cc1c(OCc2ccc(F)cc2F)c(Br)c(=O)n(-c2c(F)cccc2F)c1C | 25000 to 100000 nM
107 | Cc1ccc(CO)cc1-n1c(C)cc(OCc2ccc(F)cc2F)c(Cl)c1=O | < 1000 nM

— the Kinase Knowledgebase extract (Sharma et al. 2016)
